In patent US4122179A, “Acid addition salts of vincamine and apovincamine” (priority 1976, dated 1978):
Structures can show the parent of a compound that is named as a salt.

Tests used:
[1] = LD50 / acute toxicity, intraperitoneal route; type: in vivo; conditions: i.p.; for Toxicity (Gleason): Gleason class in words, classes not defined
vertebral arteria = assay: Cerebral vasodilating activity: hematic flow at the vertebral arteria after i.v. administration; type: in vivo; conditions: i.v. (femoral vein), 5 mg/kg of vincamine/apovincamine, anesthetized dog, 4 animals per compound
Experimental: (§1) For the compounds of the present invention a number of pharmacological and pharmacokinetic tests have been carried out. […] As regards the pharmacological and pharmacodynamic activity, it has been studied on the percent variations of the hematic flow, as recorded at the vertebral arteria in the dog after administration of the tested compounds. As regards the pharmacokinetic tests, the compounds were administered per oral route to the Wistar rat, and the hematic levels at different times from the administration were measured.
The cerebral vasodilating activity was studied in the anestetized dog, by measuring, by means of Statham periarterial electromagnetic flowmeters, the hematic flow at the level of the […] which, in such animal species, constitutes the greatest blood supply to the brain.
The resuls are reported in the TABLE 2 (last column) as the percent variations of the flow measured at the level of the ledt vertebral arteria after the i.v. administration of the several compounds to be tested to groups of 4 animals for each compound. The results also confirm that the compounds of the invention are all endowed with a vasodilating activity at the level of the cerebral circulus, such an action being, for some compounds, much more remarkable than that of vincamine and apovincamine.

[2] = Hematic levels at different times after oral administration (absorption); type: in vivo, Wistar rat; conditions: 100 mg/kg expressed as vincamine/apovincamine, 5% carboxymethyl cellulose suspension; for Tmax: rat, blood, po, read-out: Max. conc. time (converted)
Experimental: as §1
For the evaluation of the absorption, all the compounds have been orally administered at the dosage of 100 mg/kg, expressed as vincamine and apovincamine, in form of a suspension in a 5% carboxymethyl cellulose solution.
The absorption was determined by evaulating the hematic levels at the following times (minutes) : 0, 30, 120, 240, 480, 10 hours and 12 hours, in order also to assess the time from the administration (max conc.time) the maximum absorption occurred.
The vincamine and apovincamine concentrations were assessed by chromatographic method.
For the evaluation of the prolonged action of the salts and of the adducts of vincamine and apovincamine the following criterium was adopted; as derivatives having a long-acting effect, there are considered those which, 120 minutes after the administration, show hematic levels higher than those obtained with vincamine and apovincamine.

Solubility = type: physicochemical; conditions: qualitative; for solubility in alcohol: alcohol (ethyl alcohol)

Compound | LD50 [1] | Toxicity (Gleason) [1] | % increase (percent variation of hematic flow, left vertebral arteria) (vertebral arteria; 5 mg/kg) | Max. conc. time ([2]; 100 mg/kg) | solubility in alcohol (Solubility) | solubility in water (Solubility) | further results
glucose-6-phosphate [Example 3.d] | 900 mg/kg | modest | 28.8% | 120 min |  |  | 
CC[C@]12CCCN3CCc4c(n(c5ccccc45)[C@@](O)(C(=O)OC)C1)[C@@H]32 [Example 15.a, nicotinate] | 900 mg/kg | modest | 21.9% | 60 min |  |  | 
CC[C@@]12C=C(C(=O)OC)n3c4c(c5ccccc53)CCN(CCC1)[C@H]42 [Example 12.b, Apovincamine furoate] |  |  | 24.0% | 240 min | soluble | insoluble | 
glucose-6-phosphate disodium [Example 1.c] | 2000 mg/kg | negligible |  |  |  |  | % increase (percent variation of hematic flow, left vertebral arteria) (vertebral arteria; disodium, 5 mg/kg): 26.3%; Max. conc. time ([2]; disodium, 100 mg/kg): 480 min
CC[C@]12CCC[N+]3(C)CCc4c(n(c5ccccc45)[C@@](O)(C(=O)OC)C1)[C@H]23 (stereo partly shown) [Example 17.a, Vincamine methylsulfate] |  |  |  |  | soluble | soluble | % increase (percent variation of hematic flow, left vertebral arteria) (vertebral arteria): 28.4%; Tmax ([2]; 100 mg/kg): 1 h
CC[C@]12CCCN3CCc4c(n(c5ccccc45)[C@@](O)(C(=O)OC)C1)[C@@H]32 [Example 4.c, glucose-6-phosphate acid salt] | 800 mg/kg | modest | 28.2% | 240 min |  |  | 
CC[C@@]12C=C(C(=O)OC)n3c4c(c5ccccc53)CC[N+](C)(CCC1)[C@H]42 (stereo partly shown) [Example 17.b, Apovincamine methylsulfate] |  |  |  |  | poorly soluble | soluble | % increase (percent variation of hematic flow, left vertebral arteria) (vertebral arteria): 29.7%; Tmax ([2]; 100 mg/kg): 1 h
CC[C@@]12C=C(C(=O)OC)n3c4c(c5ccccc53)CCN(CCC1)[C@H]42 [Example 13.b, Apovincamine D(+)-camphorsulfonate] |  |  | 37.4% | 120 min | soluble | soluble | 
Apovincamine tannate [Example 24.b] |  |  |  |  |  | insoluble | % increase (percent variation of hematic flow, left vertebral arteria) (vertebral arteria): 29.8%; Max. conc. time [2]: 480 min
CC[C@@]12C=C(C(=O)OC)n3c4c(c5ccccc53)CCN(CCC1)[C@H]42 [Example 20.b, Apovincamine theophylline-7-acetate] |  |  | 27.2% | 120 min |  | soluble | 
CC[C@@]12C=C(C(=O)OC)n3c4c(c5ccccc53)CCN(CCC1)[C@H]42 [Example 25.b, Apovincamine (D,L)-mandelate] |  |  | 34.5% | 120 min | soluble | insoluble | 
glucose-6-phosphate [Example 3.c] | 1000 mg/kg | light | 28.4% | 240 min |  |  | 
CC[C@@]12C=C(C(=O)OC)n3c4c(c5ccccc53)CCN(CCC1)[C@H]42 [Apovincamine, apovincamine] | 2000 mg/kg | negligible | 25.6% | 60 min |  |  | 
CC[C@]12CCCN3CCc4c(n(c5ccccc45)[C@@](O)(C(=O)OC)C1)[C@@H]32 [Vincamine HCl, reference compound] |  |  |  |  |  |  | Toxicity (Gleason) ([1]; HCl): modest; LD50 ([1]; HCl): 800 mg/kg; % increase (percent variation of hematic flow, left vertebral arteria) (vertebral arteria; HCl, 5 mg/kg): 24.1%; Max. conc. time ([2]; HCl, 100 mg/kg): 20 min
glucose-6-phosphate disodium [Example 1.d] | 2000 mg/kg | negligible |  |  |  |  | % increase (percent variation of hematic flow, left vertebral arteria) (vertebral arteria; disodium, 5 mg/kg): 29.3%; Max. conc. time ([2]; disodium, 100 mg/kg): 120 min
